Test results from patent publication US20260092179A1, “GENETICALLY MODIFIED HOST CELLS PRODUCING VIOLACEIN, ANALOGUES, AND DERIVATIVES THEREOF” (OCTARINE BIO APS, priority 2022, published 2026).

Key:
[1] = Stability during laundering of dyed fabrics (colour fastness, ΔE); assay type: physicochemical; settings: washed at 30° c.
Protocol: (§1) In order to assess the stability and colour fastness of violacein and violacein derivatives dyed onto fabrics, dyed fabrics were subjected to a number of conditions. Fabrics were dyed according to Example 18 and colour coordinates and colour change before and after exposure to a given condition were determined as described in Example 18. To measure temperature stability, fabrics were incubated in an oven set to 80° c. for 4 h. To measure stability under acid and alkaline conditions, fabrics were fully submerged in water solutions set to pH 8 with NaOH and pH 5 with HCl and incubated at room temperature for 30 minutes. Fabrics were then incubated at 37° c. for 4 h. To measure stability during laundering, fabrics were washed at 30° c. under the “mix” setting of a Siemens IQ300 washing machine, then dried in a Siemens IQ300 dryer until dry. To measure artificial light stability, fabrics were placed under an LED lamp at room temperature for 16 h. To measure UV light stability, fabrics were placed under a UV lamp at room temperature for 1 h.

[2] = Alkaline pH stability of dyed fabrics (colour fastness, ΔE); assay type: physicochemical; settings: pH 8 with NaOH
Protocol: as §1

[3] = system: S. cerevisiae S228c; test: Antimicrobial activity of dyed Nylon 6,6 fabric: final OD600 and % inhibition; assay type: cell-based
Protocol: (§2) Violacein is reported as being a potent antibiotic, capable of inhibiting the growth of a wide range of microbial kingdoms including bacteria, yeast, fungi, viruses, protozoa and nematode. […] To test this, overnight cultures of wild-type E. coli DH5a and S. cerevisiae S228c strains were diluted in 5 mL of cultivation media (LB for E. coli, minimal media for S. cerevisiae) to a starting OD600 of 0.1. 1.5×1.5 cm dyed Nylon 6,6 fabric strips were sterilized by submerging in 75% ethanol for 15 mins and air drying in a laminar air flow hood before adding to each culture (with undyed Nylon 6,6 fabric as a negative control). […] This experiment provides evidence that all violacein derivatives display antimicrobial properties.

[4] = system: E. coli DH5a; test: as above; assay type: cell-based
Protocol: as §2

[5] = Temperature stability of dyed fabrics (colour fastness, ΔE); assay type: physicochemical; settings: oven 80° c. for 4 h; for ΔE: before and after the stability test
Protocol: as §1

[6] = Acrylic, before and after the stability test
[7] = Bleached cotton, before and after the stability test
[8] = Diacetate, before and after the stability test
[9] = Nylon 6,6, before and after the stability test
[10] = Polyester, before and after the stability test
[11] = Wool, before and after the stability test

## O=C1NC(c2c[nH]c3ccccc23)=C/C1=C1\C(=O)Nc2ccccc21 [deoxyviolacein]
[1]; Acrylic, After test
  L: 69.42
  a: −1.13
  b: 0.45
[1]; Acrylic, Before test
  L: 60.9
  a: 0.39
  b: −2.66
[1]; [6]
  ΔE: 9.20
[1]; Bleached cotton, After test
  L: 69.57
  a: 0.39
  b: −5.93
[1]; Bleached cotton, Before test
  L: 61.14
  a: 0.73
  b: −8.03
[1]; [7]
  ΔE: 8.69
[1]; Diacetate, After test
  L: 54.82
  a: 10.32
  b: −14.22
[1]; Diacetate, Before test
  L: 50.89
  a: 9.08
  b: −15.27
[1]; [8]
  ΔE: 4.25
[1]; Nylon 6,6, After test
  L: 47.79
  a: 6.03
  b: −20.63
[1]; Nylon 6,6, Before test
  L: 44.46
  a: 6.19
  b: −22.02
[1]; [9]
  ΔE: 3.61
[1]; Polyester, After test
  L: 74.17
  a: −0.99
  b: −0.58
[1]; Polyester, Before test
  L: 64.92
  a: 1.08
  b: −5.1
[1]; [10]
  ΔE: 10.50
[1]; Wool, After test
  L: 72.9
  a: −0.9
  b: 3.2
[1]; Wool, Before test
  L: 63.37
  a: −0.25
  b: −1.82
[1]; [11]
  ΔE: 10.79
[2]; Acrylic, After test
  L: 59.52
  a: 0.99
  b: −2.75
[2]; Acrylic, Before test
  L: 60.91
  a: 1.48
  b: −2.6
[2]; [6]
  ΔE: 1.48
[2]; Bleached cotton, After test
  L: 62.83
  a: 2.23
  b: −8.43
[2]; Bleached cotton, Before test
  L: 61.33
  a: 1.92
  b: −9.6
[2]; [7]
  ΔE: 1.93
[2]; Diacetate, After test
  L: 53.77
  a: 9.48
  b: −13.38
[2]; Diacetate, Before test
  L: 53.4
  a: 9.48
  b: −14.88
[2]; [8]
  ΔE: 1.54
[2]; Nylon 6,6, After test
  L: 46
  a: 4.44
  b: −20.31
[2]; Nylon 6,6, Before test
  L: 45.47
  a: 6.49
  b: −22.12
[2]; [9]
  ΔE: 2.79
[2]; Polyester, After test
  L: 67.22
  a: 2.02
  b: −3.88
[2]; Polyester, Before test
  L: 66.7
  a: 1.3
  b: −4.19
[2]; [10]
  ΔE: 0.94
[2]; Wool, After test
  L: 66.95
  a: 0.82
  b: −0.41
[2]; Wool, Before test
  L: 65.33
  a: 0.19
  b: 0.13
[2]; [11]
  ΔE: 1.82
[3]; S. cerevisiae cultured overnight at 30° c. with dyed Nylon 6,6 fabric strip, starting OD600 0.1
  Final OD600: 4.99
[3]; S. cerevisiae, dyed Nylon 6,6 fabric vs undyed fabric control
  % Inhibition: 6.90%
[4]; E. coli cultured overnight at 30° c. with dyed Nylon 6,6 fabric strip, starting OD600 0.1
  Final OD600: 4.62
[4]; E. coli, dyed Nylon 6,6 fabric vs undyed fabric control
  % Inhibition: 11.45%
[5]; Acrylic, After test
  L: 59.66
  a: 0.86
  b: −2.82
[5]; Acrylic, Before test
  L: 59.1
  a: 1.55
  b: −1.29
[5]; Acrylic
  ΔE: 1.77
[5]; Bleached cotton, After test
  L: 63.74
  a: 2.09
  b: −8.13
[5]; Bleached cotton, Before test
  L: 63.16
  a: 1.56
  b: −7.66
[5]; Bleached cotton
  ΔE: 0.92
[5]; Diacetate, After test
  L: 51.96
  a: 10.78
  b: −13.7
[5]; Diacetate, Before test
  L: 51.65
  a: 10.65
  b: −14.56
[5]; Diacetate
  ΔE: 0.92
[5]; Nylon 6,6, After test
  L: 45.2
  a: 6.79
  b: −21.25
[5]; Nylon 6,6, Before test
  L: 44.99
  a: 6.18
  b: −21.43
[5]; Nylon 6,6
  ΔE: 0.67
[5]; Polyester, After test
  L: 65.03
  a: 2.08
  b: −2.03
[5]; Polyester, Before test
  L: 64.62
  a: 1.61
  b: −2.79
[5]; Polyester
  ΔE: 0.98
[5]; Wool, After test
  L: 66.12
  a: 1.93
  b: −0.48
[5]; Wool, Before test
  L: 66.67
  a: −0.09
  b: −0.62
[5]; Wool
  ΔE: 2.10
